Patent US9695155B2, “Herbicidal substituted pyrimidinyloxy benzene compounds” (E. I. DU PONT DE NEMOURS AND COMPANY, priority 2013, dated 2017)

Experiments:
barnyardgrass [1] = assay: Test A preemergence; format: in vivo, Echinochloa crus-galli; conditions: 0 to 100 scale where 0 is no effect and 100 is complete control; for Plant response rating, Barnyardgrass: 125 g ai/ha; for Barnyardgrass plant response rating: 500 g ai/ha
Summary of the method: (§1)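 Visual 0–100 rating (100 = complete control) taken about 10 d post-treatment relative to untreated checks. Preemergence: directed soil spray on sown loam/sand pots. Postemergence: seedlings 2–10 cm, 1–2 leaf. Non-phytotoxic solvent formulation with surfactant.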

large (Lg) crabgrass [2] = assay: Test A preemergence; format: in vivo, Digitaria sanguinalis; conditions: 0 to 100 scale where 0 is no effect and 100 is complete control; for Plant response rating, Crabgrass, Large: 125 g ai/ha; for Crabgrass, Large plant response rating: 500 g ai/ha
Summary of the method: as §1

giant foxtail [3] = assay: Test A preemergence; format: in vivo, Setaria faberii; conditions: 0 to 100 scale where 0 is no effect and 100 is complete control; for Plant response rating, Foxtail, Giant: 125 g ai/ha; for Foxtail, Giant plant response rating: 500 g ai/ha
Summary of the method: as §1

morningglory [4] = assay: Test A preemergence; format: in vivo, Ipomoea spp.; conditions: for Morningglory plant response rating: 500 g ai/ha
Summary of the method: as §1

pigweed [5] = assay: Test A preemergence; format: in vivo, Amaranthus retroflexus; conditions: for Pigweed plant response rating: 500 g ai/ha
Summary of the method: as §1

velvetleaf [6] = assay: Test A preemergence; format: in vivo, Abutilon theophrasti; conditions: for Velvetleaf plant response rating: 500 g ai/ha
Summary of the method: as §1

wheat [7] = assay: Test A preemergence; format: in vivo, Triticum aestivum; conditions: for Wheat plant response rating: 500 g ai/ha
Summary of the method: as §1

corn [8] = assay: Test A preemergence; format: in vivo, Zea mays; conditions: 0 to 100 scale where 0 is no effect and 100 is complete control; for Plant response rating, Corn: 125 g ai/ha; for Corn plant response rating: 500 g ai/ha
Summary of the method: as §1

barnyardgrass [9] = assay: Test A postemergence; format: in vivo, Echinochloa crus-galli; conditions: 0 to 100 scale where 0 is no effect and 100 is complete control; for Barnyardgrass plant response rating: 125 g ai/ha; for Plant response rating, Barnyardgrass: 500 g ai/ha
Summary of the method: as §1

large (Lg) crabgrass [10] = assay: Test A postemergence; format: in vivo, Digitaria sanguinalis; conditions: 0 to 100 scale where 0 is no effect and 100 is complete control; for Crabgrass, Large plant response rating: 125 g ai/ha; for Plant response rating, Crabgrass, Large: 500 g ai/ha
Summary of the method: as §1

giant foxtail [11] = assay: Test A postemergence; format: in vivo, Setaria faberii; conditions: 0 to 100 scale where 0 is no effect and 100 is complete control; for Foxtail, Giant plant response rating: 125 g ai/ha; for Plant response rating, Foxtail, Giant: 500 g ai/ha
Summary of the method: as §1

morningglory [12] = assay: Test A postemergence; format: in vivo, Ipomoea spp.; conditions: 0 to 100 scale where 0 is no effect and 100 is complete control; for Morningglory plant response rating: 125 g ai/ha; for Plant response rating, Morningglory: 500 g ai/ha
Summary of the method: as §1

pigweed [13] = assay: Test A postemergence; format: in vivo, Amaranthus retroflexus; conditions: 0 to 100 scale where 0 is no effect and 100 is complete control; for Pigweed plant response rating: 125 g ai/ha; for Plant response rating, Pigweed: 500 g ai/ha
Summary of the method: as §1

velvetleaf [14] = assay: Test A postemergence; format: in vivo, Abutilon theophrasti; conditions: 0 to 100 scale where 0 is no effect and 100 is complete control; for Velvetleaf plant response rating: 125 g ai/ha; for Plant response rating, Velvetleaf: 500 g ai/ha
Summary of the method: as §1

wheat [15] = assay: Test A postemergence; format: in vivo, Triticum aestivum; conditions: 0 to 100 scale where 0 is no effect and 100 is complete control; for Wheat plant response rating: 125 g ai/ha; for Plant response rating, Wheat: 500 g ai/ha
Summary of the method: as §1

corn [16] = assay: Test A postemergence; format: in vivo, Zea mays; conditions: 0 to 100 scale where 0 is no effect and 100 is complete control; for Corn plant response rating: 125 g ai/ha; for Plant response rating, Corn: 500 g ai/ha
Summary of the method: as §1

rice = assay: Test B flooded paddy test; format: in vivo, Oryza sativa; conditions: Flood, 250 g ai/ha; 0 to 100 scale where 0 is no effect and 100 is complete control
Summary of the method: (§2)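 Flooded to 3 cm at the 2-leaf stage, pots received compound through the paddy water and were kept at that depth under greenhouse conditions. After 13–15 days, effect was rated by eye relative to controls, 0 = none and 100 = complete control.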

sedge, umbrella = assay: Test B flooded paddy test; format: in vivo, Cyperus difformis; conditions: Flood, 250 g ai/ha; 0 to 100 scale where 0 is no effect and 100 is complete control
Summary of the method: as §2

Heteranthera limosa = assay: Test B flooded paddy test; format: in vivo; conditions: Flood, 250 g ai/ha; 0 to 100 scale where 0 is no effect and 100 is complete control
Summary of the method: as §2

barnyardgrass [17] = assay: Test B flooded paddy test; format: in vivo, Echinochloa crus-galli; conditions: Flood, 250 g ai/ha; 0 to 100 scale where 0 is no effect and 100 is complete control
Summary of the method: as §2

[18] = 125 g ai/ha, 0 to 100 scale where 0 is no effect and 100 is complete control
[19] = 0 to 100 scale where 0 is no effect and 100 is complete control

## O=Cc1cccc(Oc2ncc(Br)cn2)c1-n1cc(C(F)(F)F)cn1 [Compound 161]
Barnyardgrass [1]
  Plant response rating, Barnyardgrass: 0
  Barnyardgrass plant response rating: 10
Large (Lg) crabgrass [2]
  Plant response rating, Crabgrass, Large: 0
  Crabgrass, Large plant response rating: 0
Giant foxtail [3]
  Plant response rating, Foxtail, Giant: 0
  Foxtail, Giant plant response rating: 0
Morningglory [4]; [18]
  Plant response rating, Morningglory: 0
Morningglory [4]; [19]
  Morningglory plant response rating: 0
Pigweed [5]; [18]
  Plant response rating, Pigweed: 90
Pigweed [5]; [19]
  Pigweed plant response rating: 100
Velvetleaf [6]; [18]
  Plant response rating, Velvetleaf: 10
Velvetleaf [6]; [19]
  Velvetleaf plant response rating: 20
Wheat [7]; [18]
  Plant response rating, Wheat: 0
Wheat [7]; [19]
  Wheat plant response rating: 0
Corn [8]
  Plant response rating, Corn: 0
  Corn plant response rating: 0
Barnyardgrass [9]
  Barnyardgrass plant response rating: 0
  Plant response rating, Barnyardgrass: 0
Large (Lg) crabgrass [10]
  Crabgrass, Large plant response rating: 0
  Plant response rating, Crabgrass, Large: 0
Giant foxtail [11]
  Foxtail, Giant plant response rating: 0
  Plant response rating, Foxtail, Giant: 0
Morningglory [12]
  Morningglory plant response rating: 0
  Plant response rating, Morningglory: 0
Pigweed [13]
  Pigweed plant response rating: 50
  Plant response rating, Pigweed: 80
Velvetleaf [14]
  Velvetleaf plant response rating: 10
  Plant response rating, Velvetleaf: 20
Wheat [15]
  Wheat plant response rating: 0
  Plant response rating, Wheat: 0
Corn [16]
  Corn plant response rating: 0
  Plant response rating, Corn: 0
rice
  Plant response rating, Rice: 0
sedge, umbrella
  Plant response rating, Sedge, Umbrella: 0
Heteranthera limosa
  Plant response rating, Ducksalad: 0
Barnyardgrass [17]
  Plant response rating, Barnyardgrass: 0

## O=Cc1cccc(Oc2ncc(F)cn2)c1-n1cc(C(F)(F)F)cn1 [Compound 162]
Barnyardgrass [1]
  Plant response rating, Barnyardgrass: 10
  Barnyardgrass plant response rating: 50
Large (Lg) crabgrass [2]
  Plant response rating, Crabgrass, Large: 0
  Crabgrass, Large plant response rating: 10
Giant foxtail [3]
  Plant response rating, Foxtail, Giant: 0
  Foxtail, Giant plant response rating: 0
Morningglory [4]; 125 g ai/ha
  Morningglory plant response rating (0 to 100 scale): 0
Morningglory [4]; [19]
  Morningglory plant response rating: 0
Pigweed [5]; 125 g ai/ha
  Pigweed plant response rating (0 to 100 scale): 100
Pigweed [5]; [19]
  Pigweed plant response rating: 100
Velvetleaf [6]; 125 g ai/ha
  Velvetleaf plant response rating (0 to 100 scale): 10
Velvetleaf [6]; [19]
  Velvetleaf plant response rating: 50
Wheat [7]; 125 g ai/ha
  Wheat plant response rating (0 to 100 scale): 0
Wheat [7]; [19]
  Wheat plant response rating: 0
Corn [8]
  Plant response rating, Corn: 0
  Corn plant response rating: 0
Barnyardgrass [9]
  Barnyardgrass plant response rating: 0
  Plant response rating, Barnyardgrass: 10
Large (Lg) crabgrass [10]
  Crabgrass, Large plant response rating: 0
  Plant response rating, Crabgrass, Large: 10
Giant foxtail [11]
  Foxtail, Giant plant response rating: 0
  Plant response rating, Foxtail, Giant: 0
Morningglory [12]
  Morningglory plant response rating: 0
  Plant response rating, Morningglory: 10
Pigweed [13]
  Pigweed plant response rating: 30
  Plant response rating, Pigweed: 70
Velvetleaf [14]
  Velvetleaf plant response rating: 10
  Plant response rating, Velvetleaf: 50
Wheat [15]
  Wheat plant response rating: 0
  Plant response rating, Wheat: 0
Corn [16]
  Corn plant response rating: 0
  Plant response rating, Corn: 10
rice
  Plant response rating, Rice: 0
sedge, umbrella
  Plant response rating, Sedge, Umbrella: 40
Heteranthera limosa
  Plant response rating, Ducksalad: 35
Barnyardgrass [17]
  Plant response rating, Barnyardgrass: 0

## N#Cc1cccc(Oc2ncc(Br)cn2)c1-n1cccn1 [Compound 165]
Barnyardgrass [1]
  Plant response rating, Barnyardgrass: 0
  Barnyardgrass plant response rating: 20
Large (Lg) crabgrass [2]
  Plant response rating, Crabgrass, Large: 50
  Crabgrass, Large plant response rating: 90
Giant foxtail [3]
  Plant response rating, Foxtail, Giant: 20
  Foxtail, Giant plant response rating: 90
Morningglory [4]; 125 g ai/ha
  Morningglory plant response rating (0 to 100 scale): 0
Pigweed [5]; 125 g ai/ha
  Pigweed plant response rating (0 to 100 scale): 60
Pigweed [5]; [19]
  Pigweed plant response rating: 90
Velvetleaf [6]; 125 g ai/ha
  Velvetleaf plant response rating (0 to 100 scale): 10
Velvetleaf [6]; [19]
  Velvetleaf plant response rating: 20
Wheat [7]; 125 g ai/ha
  Wheat plant response rating (0 to 100 scale): 0
Wheat [7]; [19]
  Wheat plant response rating: 0
Corn [8]
  Plant response rating, Corn: 0
  Corn plant response rating: 0
Barnyardgrass [9]
  Barnyardgrass plant response rating: 0
  Plant response rating, Barnyardgrass: 0
Large (Lg) crabgrass [10]
  Crabgrass, Large plant response rating: 0
  Plant response rating, Crabgrass, Large: 10
Giant foxtail [11]
  Foxtail, Giant plant response rating: 10
  Plant response rating, Foxtail, Giant: 20
Morningglory [12]
  Morningglory plant response rating: 10
  Plant response rating, Morningglory: 20
Pigweed [13]
  Pigweed plant response rating: 30
  Plant response rating, Pigweed: 80
Velvetleaf [14]
  Velvetleaf plant response rating: 10
  Plant response rating, Velvetleaf: 30
Wheat [15]
  Wheat plant response rating: 0
  Plant response rating, Wheat: 0
Corn [16]
  Corn plant response rating: 0
  Plant response rating, Corn: 0
rice
  Plant response rating, Rice: 0
sedge, umbrella
  Plant response rating, Sedge, Umbrella: 0
Heteranthera limosa
  Plant response rating, Ducksalad: 0
Barnyardgrass [17]
  Plant response rating, Barnyardgrass: 0

## FC(F)(F)c1cnn(-c2c(Cl)cccc2Oc2ncc(Br)cn2)c1 [Compound 168]
Barnyardgrass [1]
  Plant response rating, Barnyardgrass: 50
  Barnyardgrass plant response rating: 80
Large (Lg) crabgrass [2]
  Plant response rating, Crabgrass, Large: 100
  Crabgrass, Large plant response rating: 100
Giant foxtail [3]
  Plant response rating, Foxtail, Giant: 100
  Foxtail, Giant plant response rating: 100
Morningglory [4]; 125 g ai/ha
  Morningglory plant response rating (0 to 100 scale): 20
Morningglory [4]; [19]
  Morningglory plant response rating: 80
Pigweed [5]; 125 g ai/ha
  Pigweed plant response rating (0 to 100 scale): 100
Pigweed [5]; [19]
  Pigweed plant response rating: 100
Velvetleaf [6]; 125 g ai/ha
  Velvetleaf plant response rating (0 to 100 scale): 70
Velvetleaf [6]; [19]
  Velvetleaf plant response rating: 90
Wheat [7]; 125 g ai/ha
  Wheat plant response rating (0 to 100 scale): 20
Wheat [7]; [19]
  Wheat plant response rating: 20
Corn [8]
  Plant response rating, Corn: 0
  Corn plant response rating: 20
Barnyardgrass [9]
  Barnyardgrass plant response rating: 50
  Plant response rating, Barnyardgrass: 90
Large (Lg) crabgrass [10]
  Crabgrass, Large plant response rating: 70
  Plant response rating, Crabgrass, Large: 90
Giant foxtail [11]
  Foxtail, Giant plant response rating: 70
  Plant response rating, Foxtail, Giant: 90
Morningglory [12]
  Morningglory plant response rating: 50
  Plant response rating, Morningglory: 100
Pigweed [13]
  Pigweed plant response rating: 100
  Plant response rating, Pigweed: 100
Velvetleaf [14]
  Velvetleaf plant response rating: 90
  Plant response rating, Velvetleaf: 100
Wheat [15]
  Wheat plant response rating: 10
  Plant response rating, Wheat: 50
Corn [16]
  Corn plant response rating: 20
  Plant response rating, Corn: 30
rice
  Plant response rating, Rice: 30
sedge, umbrella
  Plant response rating, Sedge, Umbrella: 80
Heteranthera limosa
  Plant response rating, Ducksalad: 90
Barnyardgrass [17]
  Plant response rating, Barnyardgrass: 0
